# Reference: patent US8530460B2, “Azetidine derivatives” (Boehringer Ingelheim International GmbH, priority 2011, dated 2013)
# Target: human ACC2 (Homo sapiens (Human), UniProt O00763)
# Test: ACC2 assay (spectrophotometric 384 well assay, NADH-linked coupled lactate dehydrogenase/pyruvate kinase)
# Type: biochemical
# Conditions: hACC2 construct lacking 128 N-terminal amino acids; 25° C., 340 nm, 15 minutes
# Description: Spectrophotometric 384 Well Assay
# Malonyl CoA formation by acetyl CoA carboxylases is stoichometrically linked to the consumption of ATP. ACC2 activity is measured in a NADH-linked kinetic method measuring ADP generated during the ACC reaction using a coupled lactate dehydrogenase/pyruvate kinase reaction.
# For biological testing, a human ACC2 construct which lacks the 128 amino acids at the N-terminus for increased solubility (nt 385-6966 in Genbank entry AJ575592) is cloned. The protein is then expressed in insect cells using a baculoviral expression system. Protein purification is performed by anion exchange.
# All compounds are dissolved in dimethyl sulfoxide (DMSO) to a concentration of 10 mM.
# Assay reactions are then carried out in 384-well plates, with hACC2 in an appropriate dilution and at final assay concentrations (f.c.) of 100 mM Tris (pH 7.5), 10 mM trisodium citrate, 25 mM KHCO3, 10 mM MgCl2, 0.5 mg/ml BSA, 3.75 mM reduced L-glutathione, 15 U/ml lactate dehydrogenase, 0.5 mM phosphoenolpyruvate, 15 U/ml pyruvate kinase, compounds at different concentrations at final DMSO concentrations of 1%.
# The enzymatic reaction is then started by addition of a mixture of NADH, acetyl Coenzyme A (both 200 μM f.c.) and ATP (500 uM f.c.). The decrease of the optical density (slope S) is then determined at 25° C. at a wavelength of 340 nm over 15 minutes in a spectrophotometric reader.
# Each assay microtiter plate contains wells with vehicle instead of compound as controls for the non-inhibited enzyme (100% CTL; ‘HIGH’) and wells without acetyl-CoA as controls for non-specific NADH degradation (0% CTL; ‘LOW’).
# The slope S is used for calculation of % CTL=(S(compound)−S(‘LOW’))/(S(‘HIGH’)—S(‘LOW’))*100. Compounds will give values between 100% CTL (no inhibition) and 0% CTL (complete inhibition).
# For IC50 value determination, the sample slope in the presence of the test compound after subtraction of the low controls (S(compound)−S(‘LOW’)) are used.
# An IC50 value is derived from the compound slopes at different dosages after subtraction of the low controls (S(compound)−S(‘LOW’)) by non-linear regression curve fitting (equation y=(A+((B−A)/(1+((C/x)^D))))).
# Chain of human ACC2 (O00763 129-2458): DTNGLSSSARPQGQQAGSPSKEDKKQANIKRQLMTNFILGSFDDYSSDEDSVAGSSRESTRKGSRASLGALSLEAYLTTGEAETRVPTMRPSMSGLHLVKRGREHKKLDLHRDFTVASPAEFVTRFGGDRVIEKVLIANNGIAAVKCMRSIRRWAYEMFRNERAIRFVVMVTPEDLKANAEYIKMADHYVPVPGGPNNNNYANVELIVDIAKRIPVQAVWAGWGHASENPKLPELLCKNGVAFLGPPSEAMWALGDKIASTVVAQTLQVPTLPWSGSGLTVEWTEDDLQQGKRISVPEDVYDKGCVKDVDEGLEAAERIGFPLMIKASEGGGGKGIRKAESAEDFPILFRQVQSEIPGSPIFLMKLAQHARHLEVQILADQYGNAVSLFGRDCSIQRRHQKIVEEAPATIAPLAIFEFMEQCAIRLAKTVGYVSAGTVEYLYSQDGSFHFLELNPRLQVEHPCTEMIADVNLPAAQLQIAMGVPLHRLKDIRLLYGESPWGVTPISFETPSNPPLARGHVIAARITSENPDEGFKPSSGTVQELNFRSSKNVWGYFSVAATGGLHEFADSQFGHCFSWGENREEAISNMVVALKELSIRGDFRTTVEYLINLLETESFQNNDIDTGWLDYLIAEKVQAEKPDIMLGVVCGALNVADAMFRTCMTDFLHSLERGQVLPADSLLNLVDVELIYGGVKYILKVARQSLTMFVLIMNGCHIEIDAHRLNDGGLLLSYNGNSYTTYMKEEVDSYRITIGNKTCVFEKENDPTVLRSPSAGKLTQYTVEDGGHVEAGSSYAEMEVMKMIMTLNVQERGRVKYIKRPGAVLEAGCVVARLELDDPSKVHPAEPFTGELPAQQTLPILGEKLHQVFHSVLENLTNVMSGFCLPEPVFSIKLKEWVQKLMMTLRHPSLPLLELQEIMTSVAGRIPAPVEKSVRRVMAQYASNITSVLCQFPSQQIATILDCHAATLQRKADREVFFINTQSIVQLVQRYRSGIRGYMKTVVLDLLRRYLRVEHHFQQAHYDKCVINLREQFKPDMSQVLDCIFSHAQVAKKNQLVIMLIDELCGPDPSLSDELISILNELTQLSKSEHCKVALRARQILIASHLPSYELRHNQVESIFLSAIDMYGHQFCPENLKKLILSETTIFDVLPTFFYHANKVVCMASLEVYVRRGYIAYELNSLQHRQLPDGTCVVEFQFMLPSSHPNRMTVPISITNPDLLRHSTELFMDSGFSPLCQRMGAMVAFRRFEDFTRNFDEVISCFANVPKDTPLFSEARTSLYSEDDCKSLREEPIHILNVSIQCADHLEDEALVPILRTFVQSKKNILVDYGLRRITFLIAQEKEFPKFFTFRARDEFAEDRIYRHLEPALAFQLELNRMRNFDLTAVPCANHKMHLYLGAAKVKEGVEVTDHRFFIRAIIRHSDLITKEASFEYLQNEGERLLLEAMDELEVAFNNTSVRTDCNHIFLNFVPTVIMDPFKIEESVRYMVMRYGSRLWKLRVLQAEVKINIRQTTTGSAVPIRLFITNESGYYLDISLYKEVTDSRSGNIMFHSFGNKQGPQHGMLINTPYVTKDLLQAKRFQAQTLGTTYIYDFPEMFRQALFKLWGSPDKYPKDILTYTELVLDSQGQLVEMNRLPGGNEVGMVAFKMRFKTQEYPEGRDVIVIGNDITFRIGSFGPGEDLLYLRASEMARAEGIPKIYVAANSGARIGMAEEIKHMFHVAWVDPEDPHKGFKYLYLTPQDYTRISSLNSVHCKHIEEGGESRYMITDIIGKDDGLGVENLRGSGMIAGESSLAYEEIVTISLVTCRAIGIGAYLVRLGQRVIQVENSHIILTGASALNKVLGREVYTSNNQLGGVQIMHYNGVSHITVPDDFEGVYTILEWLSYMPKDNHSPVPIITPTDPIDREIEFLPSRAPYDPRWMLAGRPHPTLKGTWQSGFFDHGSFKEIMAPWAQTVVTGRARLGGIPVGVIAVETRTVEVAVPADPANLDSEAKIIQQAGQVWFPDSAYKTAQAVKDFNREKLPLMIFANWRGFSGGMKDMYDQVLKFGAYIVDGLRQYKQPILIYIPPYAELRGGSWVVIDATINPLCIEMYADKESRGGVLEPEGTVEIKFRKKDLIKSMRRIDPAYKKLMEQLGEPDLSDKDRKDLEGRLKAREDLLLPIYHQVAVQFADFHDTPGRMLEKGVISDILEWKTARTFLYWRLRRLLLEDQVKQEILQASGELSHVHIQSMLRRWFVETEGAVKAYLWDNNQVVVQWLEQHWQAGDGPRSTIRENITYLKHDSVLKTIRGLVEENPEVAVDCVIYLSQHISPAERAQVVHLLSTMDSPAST
row,Structure (SMILES),IC50 [nM]
1,CCCOc1ccc(N2CC(Oc3ccc([C@H](C)NC(C)=O)cc3)C2)nc1 [Example 1.52],90
2,CCOc1ccc(N2CC(Oc3ccc([C@H](C)NC(=O)c4cn[nH]c4)cc3)C2)cc1 [Example 8.7],50
3,CC(=O)N[C@@H](C)c1ccc(OC2CN(c3ccc4c(c3)OCCO4)C2)cc1 [Example 1.24],120
4,CCOc1ccc(N2CC(Oc3ccc([C@H](C)NC(=O)c4csc(NC(C)=O)n4)cc3)C2)cc1 [Example 8.35],3160
5,CC(=O)N[C@@H](C)c1ccc(OC2CN(c3ccc(OCC4CC4)cc3C#N)C2)cc1 [Example 1.47],400
6,CC(=O)N[C@@H](C)c1ccc(OC2CN(c3ccnc(Oc4cncnc4)c3)C2)cc1 [Example 2.9],10600
7,CCNc1ncc(N2CC(Oc3ccc(C(C)NC(C)=O)cc3)C2)cn1 (stereo not drawn) [Example 1.7],1250
8,C[C@H](NC(=O)N(C)C)c1ccc(OC2CN(c3ccc(OCC4CC4)cc3)C2)cc1 [Example 1.33],200
9,CC(=O)N[C@@H](C)c1ccc(OC2CN(c3ccnc(C(F)(F)F)c3)C2)cc1 [Example 4.29],1170
10,CC(=O)N[C@@H](C)c1ccc(OC2CN(c3ccc4ccccc4n3)C2)cc1 [Example 4.2],2040
11,CC(=O)N[C@@H](C)c1ccc(OC2CN(c3cc(C(F)(F)F)ncn3)C2)cc1 [Example 4.14],6110
12,CC(=O)NC(C)c1ccc(OC2CN(c3ncc(C4CC4)cn3)C2)cc1 (stereo not drawn) [Example 6.3],150
13,CCOc1ccc(N2CC(Oc3ccc([C@H](C)NC(=O)C(C)(C)OC)cc3)C2)cc1 [Example 8.36],3040
14,CC(=O)NC(C)Cc1ccc(OC2CN(c3ccc(C(C)(C)C)cc3)C2)cc1 (stereo not drawn) [Example 1.11],2210
15,CCOc1ccc(N2CC(Oc3ccc([C@H](C)NC(=O)OC)cc3)C2)cc1 [Example 10.7],230
16,CC(=O)N[C@@H](C)c1ccc(OC2CN(c3cccc(OC4CCCC4)c3)C2)cc1 [Example 7.3],780
17,COc1ccc2nc(N3CC(Oc4ccc([C@H](C)NC(C)=O)cc4)C3)ccc2c1 [Example 4.22],450
18,CC(=O)N[C@@H](C)c1ccc(OC2CN(c3cccc(OCC4CC4(F)F)c3)C2)cc1 (stereo partly drawn) [Example 7.2],1250
19,CC(=O)NC(C)c1ccc(OC2CN(c3ccc(OC4CCCC4)cc3)C2)cc1 (stereo not drawn) [Example 1.6],80
20,CCOc1ccc(N2CC(Oc3ccc([C@H](C)NC(=O)CC)cc3)C2)cc1 [Example 8.29],410
21,CC(=O)N[C@@H](C)c1ccc(OC2CN(c3c(F)cc(OC4CC4)cc3F)C2)cc1 [Example 1.45],130

row,Structure (SMILES),IC50 [nM]
1,CCOc1ccc(N2CC(Oc3ccc([C@H](C)NC(=O)c4ccns4)cc3)C2)cc1 [Example 8.34],810
2,CCOc1ccc(N2CC(Oc3ccc(CC(C)NC(C)=O)cc3)C2)cc1 (stereo not drawn) [Example 1.12],5340
3,CCCC(=O)N[C@@H](C)c1ccc(OC2CN(c3ccc(OCC)cc3)C2)cc1 [Example 8.42],1690
4,CCOc1ccc(N2CC(Oc3ccc([C@H](C)NC(=O)C4CC(OC)C4)cc3)C2)cc1 (stereo partly drawn) [Example 8.44],930
5,CC(=O)N[C@@H](C)c1ccc(OC2CN(c3ccc(C(F)(F)F)cn3)C2)cc1 [Example 4.19],200
6,CCCOc1ccc(N2CC(Oc3ccc([C@H](C)NC(=O)N(C)C)cc3)C2)cc1 [Example 1.31],190
7,COc1cc(OCC2CC2(F)F)ccc1N1CC(Oc2ccc([C@H](C)NC(C)=O)cc2)C1 (stereo partly drawn) [Example 1.61],2540
8,C[C@H](NC(=O)C1CC1)c1ccc(OC2CN(c3ccc(OC4CC4)cc3)C2)cc1 [Example 1.39],350
9,CC(=O)N[C@@H](C)c1ccc(OC2CN(c3ccc(C(F)(F)F)cc3C#N)C2)cc1 [Example 1.23],2810
10,CCCOc1ccc(N2CC(Oc3ccc([C@H](C)NC(=O)N(C)C)cc3)C2)c(OC)c1 [Example 10.5],480
11,CCOc1ccc(N2CC(Oc3ccc([C@H](C)NC(=O)c4ccnc(NC(C)=O)c4)cc3)C2)cc1 [Example 8.25],530
12,CC(=O)N[C@@H](C)c1ccc(OC2CN(c3ncc(OC(C)C)cn3)C2)cc1 [Example 4.34],940
13,CC(=O)N[C@@H](C)c1ccc(OC2CN(c3ccc(-c4ccccc4)cn3)C2)cc1 [Example 4.8],240
14,C[C@H](NC(=O)N(C)C)c1ccc(OC2CN(c3ncc(C4CC4)cn3)C2)cc1 [Example 10.1],340
15,CC(=O)N[C@@H](C)c1ccc(OC2CN(c3ncc(Cl)cn3)C2)cc1 [Example 4.24],390
16,CC(=O)N[C@@H](C)c1ccc(OC2CN(c3ccnc(C(F)(F)F)n3)C2)cc1 [Example 4.9],720
17,CC(=O)N[C@@H](C)c1ccc(OC2CN(c3cc(OC(C)C)ncn3)C2)cc1 [Example 11.2],10600
18,COc1ccc(-c2cnc(N3CC(Oc4ccc(C(C)NC(C)=O)cc4)C3)nc2)cc1 (stereo not drawn) [Example 3.4],1470
19,CCNC(=O)N[C@@H](C)c1ccc(OC2CN(c3ncc(C4CC4)cn3)C2)cc1 [Example 10.2],1170
20,CC(=O)NC(C)c1ccc(OC2CN(c3ccc(OC4CCC4)cc3)C2)cc1 (stereo not drawn) [Example 1.4],130
21,CC(=O)N[C@@H](C)c1ccc(OC2CN(c3ccc(OC4CC4)cc3OC3CC3)C2)cc1 [Example 2.4],6140

row,Structure (SMILES),IC50 [nM]
1,CC(=O)N[C@@H](C)c1ccc(OC2CN(c3nnc(-c4ccccc4)s3)C2)cc1 [Example 3.9],3820
2,CCOc1ccc(N2CC(Oc3ccc([C@H](C)NC(=O)c4cnco4)cc3)C2)cc1 [Example 8.33],190
3,COC(=O)N[C@@H](C)c1ccc(OC2CN(c3ncc(C4CC4)cn3)C2)cc1 [Example 10.6],420
4,CC(=O)N[C@@H](C)c1ccc(OC2CN(c3cc(Br)ccn3)C2)cc1 [Example 4.18],1800
5,CC(=O)N[C@@H](C)c1ccc(OC2CN(c3cncc(C(F)(F)F)c3)C2)cc1 [Example 4.40],1050
6,C[C@H](NC(=O)C1CC1)c1ccc(OC2CN(c3ncc(Br)cn3)C2)cc1 [Example 3.6],3880
7,C[C@H](NC(=O)N(C)C)c1ccc(OC2CN(c3ccc4c(c3)OCCO4)C2)cc1 [Example 1.34],340
8,CCOc1ccc(N2CC(Oc3ccc([C@H](C)NC(=O)C4CCOC4)cc3)C2)cc1 (stereo partly drawn) [Example 8.46],1190
9,CCC(C)Oc1ccc(N2CC(Oc3ccc([C@H](C)NC(C)=O)cc3)C2)c(OC)c1 (stereo partly drawn) [Example 1.38],2310
10,CCOc1ccc(N2CC(Oc3ccc([C@H](C)NC(C)=O)cc3)C2)c(OC)c1 [Example 1.17],1890
11,CCOc1ccc(N2CC(Oc3ccc([C@H](C)NC(=O)c4ccnnc4)cc3)C2)cc1 [Example 8.14],2250
12,CCCOc1cccc(N2CC(Oc3ccc([C@H](C)NC(=O)N(C)C)cc3)C2)c1 [Example 1.42],1050
13,"CC(=O)NC(C)c1ccc(OC2CN(c3ccc(C(C)(C)C)cc3)C2)cc1 (stereo not drawn) [Example 1.1, N-(1-(4-(1-(4-tert-Butylphenyl)azetidin-3-yloxy)phenyl)ethyl)acetamide]",180
14,"CCCOc1cc(N2CC(Oc3ccc([C@H](C)NC(C)=O)cc3)C2)ncn1 [Example 11.1, (S)—N-(1-(4-(1-(6-Propoxypyrimidin-4-yl)azetidin-3-yloxy)phenyl)ethyl)acetamide]",6010
15,C[C@H](NC(=O)C1CC1)c1ccc(OC2CN(c3ccc4c(c3)OCCO4)C2)cc1 [Example 1.41],1230
16,C=CCC(=O)N[C@@H](C)c1ccc(OC2CN(c3ccc(OCC)cc3)C2)cc1 [Example 8.13],450
17,CC(=O)N[C@@H](C)c1ccc(OC2CN(c3noc4ccccc34)C2)cc1 [Example 4.25],750
18,CCOc1ccc(N2CC(Oc3ccc([C@H](C)NC(=O)CCCNC(C)=O)cc3)C2)cc1 [Example 8.43],2340
19,CC(=O)N[C@@H](C)c1ccc(OC2CN(c3ncc(C)cn3)C2)cc1 [Example 5.2],2180
20,CC(=O)N[C@@H](C)c1ccc(OC2CN(c3cccc(C(F)(F)F)n3)C2)cc1 [Example 4.21],410
21,CC(=O)N[C@@H](C)c1ccc(OC2CN(c3cc(OC4CCC4)ncn3)C2)cc1 [Example 11.5],3200
